pEC50: −log10 of the molar value.
Columns and labels:
[1] = test system: HCV replicon in human hepatoma Huh-7 cell line; test: Anti-HCV replicon assay (EC50, luciferase); assay type: cell-based; conditions: Hepatitis C virus, Huh-7, 72 h
Description: (§1) The anti-HCV activity of the pyrido[3,2-d]pyrimidine derivatives of this invention was tested in a human hepatoma Huh-7 cell line harboring a HCV replicon. The assay comprised the following steps:
(§2) Step 1: Compound Preparation and Serial Dilution
(§3) • 1. for water soluble pyrido[3,2-d]pyrimidine derivatives, a volume of 500 μL of solution in cell media (DMEM, 10% FBS, P/S, L-Glutamine) was prepared with a concentration being twice the concentration of the starting final serial dilution concentration. A volume of 150 μL of the solution was added to the pre-specified wells in column 1 of a 96-well cell culture plate (PerkinElmer, white plate, cat. #6005181, for EC50 assay; black plate, cat. #6005182 for CC50 assay). The rest of the plate, columns 2-12, was filled with 100 μL of cell media. The plate was then placed on a Precision 2000 Workstation to start the serial dilution. Compounds were diluted three times each step from column 1 to column 10. Column 11 was used as a blank control (no compound added). • 2. for pyrido[3,2-d]pyrimidine derivatives requiring DMSO to dissolve, serial dilution is performed in 50% DMSO in a 384-well plate. A solution containing a compound at 100-fold concentration of the starting final serial dilution concentration was prepared in 50% DMSO and added to the pre-specified wells in column 1 of a polypropylene 384-well plate. The plate was then placed on a Precision 2000 Workstation to start the serial dilution. After the serial dilution, a volume of 2 μL of the solution was transferred from the 384-well plate to a 96-well cell culture plate containing 100 μL of cell media on a Biomek FX Workstation. The DMSO concentration in the final assay condition was 0.5% after cells are added to the plate and the total volume in each well is brought to 200 μL.
(§4) Step 2: to each well of the serial dilution plate prepared above, 100 μL of cell media containing 6000 suspended Huh-7 HCV replicon cells was added with a Multidrop workstation. The plates were incubated for 3 days at 37° C. with 5% CO2.
(§5) • a) for the EC50 assay, the media in a 96-well cell culture plate was aspirated with a Biotek EL405 plate-washer. A volume of 200 μL of a solution containing a 1:1 mixture of cell-lysis buffer (Promega, Luciferase Cell Culture Lysis 5× Reagent, cat. #E1531) and luciferase substrate solution (Promega, Luciferase Assay, cat.#E4550) was added to each well of the plate with Multidrop. The plate was incubated for 30 minutes at room temperature before the luminescence signal was measured with a TopCount plate-reader. • b) for the CC50 assay, a volume of 100 μL of pre-mixed CellTiter-Glo (Promega, cat.#G7572) solution is added directly to the cell culture in each well of the plate and the luminescence signal is measured with a TopCount plate-reader after 10 minutes of incubation at room temperature.

[2] = CC50 assay (CellTiter-Glo) in Huh-7 HCV replicon cells; assay type: cell-based, human; conditions: human, 3 days incubation, CellTiter-Glo readout
Description: as §1, §2, §3, §4, §5

Row | SMILES | pEC50 [1] | CC50 at 3 days [2]
1 | Fc1ccc(-c2ccc3nc(NCC(F)(F)F)nc(O[C@H]4CCOC4)c3n2)cc1 [Example 20, [6-(4-Fluoro-phenyl)-4-(tetrahydro-furan-3-yloxy)-pyrido[3,2-d]pyrimidin-2-yl]-(2,2,2-trifluoro-ethyl)-amine] | > 7.00 | > 25 µM
2 | CCOc1nc(NCC(F)(F)F)nc2ccc(-c3ccc(F)cc3)nc12 [Example 21, [4-Ethoxy-6-(4-fluoro-phenyl)-pyrido[3,2-d]pyrimidin-2-yl]-(2,2,2-trifluoro-ethyl)-amine] | > 7.00 | 5 to 25 µM
3 | Fc1ccc(CNc2nc(O[C@H]3CCOC3)c3nc(-c4ccc(F)cc4)ccc3n2)cc1 [Example 23, (4-Fluoro-benzyl)-[6-(4-fluoro-phenyl)-4-(tetrahydro-furan-3-yloxy)-pyrido[3,2-d]pyrimidin-2-yl]amine] | > 7.00 | 5 to 25 µM
4 | NC(=O)CCNc1nc(NCc2ccc(F)cc2)nc2ccc(-c3ccc(F)cc3)nc12 [Example 24, 3-[2-(4-Fluoro-benzylamino)-6-(4-fluoro-phenyl)-pyrido[3,2-d]pyrimidin-4-ylamino]-propionamide] | > 7.00 | 5 to 25 µM
5 | CC(C)(O)CNc1nc(NCc2ccc(F)cc2)nc2ccc(-c3ccc(F)cc3)nc12 [Example 25, 1-[2-(4-Fluoro-benzylamino)-6-(4-fluoro-phenyl)-pyrido[3,2-d]pyrimidin-4-ylamino]-2-methyl-propan-2-ol] | > 7.00 | < 5 µM
6 | COc1nc(NCc2ccc(F)cc2)nc2ccc(-c3ccc(F)cc3)nc12 [Example 26, (4-Fluoro-benzyl)-[6-(4-fluoro-phenyl)-4-methoxy-pyrido[3,2-d]pyrimidin-2-yl]-amine] | > 7.00 | > 25 µM
7 | CS(=O)(=O)C1CCN(c2nc(NCc3ccc(F)cc3)nc3ccc(-c4ccc(F)cc4)nc23)C1 (stereo not drawn) [Example 27, (4-Fluoro-benzyl)-[6-(4-fluoro-phenyl)-4-(3-methanesulfonyl-pyrrolidin-1-yl)-pyrido[3,2-d]pyrimidin-2-yl]-amine] | > 7.00 | < 5 µM
8 | CN(CCS(C)(=O)=O)c1nc(NCc2ccc(F)cc2)nc2ccc(-c3ccc(F)cc3)nc12 [Example 28, N2-(4-Fluoro-benzyl)-6-(4-fluoro-phenyl)-N4-(2-methanesulfonyl-ethyl)-N4-methyl-pyrido[3,2-d]pyrimidine-2,4-diamine] | > 7.00 | > 25 µM
9 | CC(C)N1CCC(Nc2nc(NCc3ccc(F)cc3)nc3ccc(-c4ccc(F)cc4)nc23)CC1 [Example 29, N2-(4-Fluoro-benzyl)-6-(4-fluoro-phenyl)-N4-(1-isopropyl-piperidin-4-yl)-pyrido[3,2-d]pyrimidine-2,4-diamine] | > 7.00 | < 5 µM
10 | CCNc1nc(NCc2ccc(F)cc2)nc2ccc(-c3ccc(F)cc3)nc12 [Example 30, N4-Ethyl-N2-(4-fluoro-benzyl)-6-(4-fluoro-phenyl)-pyrido[3,2-d]pyrimidine-2,4-diamine] | > 7.00 | 5 to 25 µM
11 | Fc1ccc(CNc2nc(NCc3cccnc3)c3nc(-c4ccc(F)cc4)ccc3n2)cc1 [Example 31, N2-(4-Fluoro-benzyl)-6-(4-fluoro-phenyl)-N4-pyridin-3-ylmethyl-pyrido[3,2-d]pyrimidine-2,4-diamine] | > 7.00 | 5 to 25 µM
12 | Fc1ccc(CNc2nc(NCCN3CCOCC3)c3nc(-c4ccc(F)cc4)ccc3n2)cc1 [Example 32, N2-(4-Fluoro-benzyl)-6-(4-fluoro-phenyl)-N4-(2-morpholin-4-yl-ethyl)-pyrido[3,2-d]pyrimidine-2,4-diamine] | > 7.00 | 5 to 25 µM
13 | Fc1ccc(CNc2nc(NCC(F)(F)F)c3nc(-c4ccc(F)cc4)ccc3n2)cc1 [Example 33, N2-(4-Fluoro-benzyl)-6-(4-fluoro-phenyl)-N4-(2,2,2-trifluoro-ethyl)-pyrido[3,2-d]pyrimidine-2,4-diamine] | > 7.00 | 5 to 25 µM
14 | COCCNc1nc(NCc2ccc(F)cc2)nc2ccc(-c3ccc(F)cc3)nc12 [Example 34, N2-(4-Fluoro-benzyl)-6-(4-fluoro-phenyl)-N4-(2-methoxy-ethyl)-pyrido[3,2-d]pyrimidine-2,4-diamine] | > 7.00 | < 5 µM
15 | CCOc1nc(NCc2ccc(F)c(F)c2)nc2ccc(-c3ccc(F)cc3)nc12 [Example 35, (3,4-Difluoro-benzyl)-[4-ethoxy-6-(4-fluoro-phenyl)-pyrido[3,2-d]pyrimidin-2-yl]-amine] | > 7.00 | 5 to 25 µM
16 | CCOc1nc(NCc2c(F)cc(OC)cc2F)nc2ccc(-c3ccc(F)cc3)nc12 [Example 36, (2,6-Difluoro-4-methoxy-benzyl)-[4-ethoxy-6-(4-fluoro-phenyl)-pyrido[3,2-d]pyrimidin-2-yl]-amine] | > 7.00 | 5 to 25 µM
17 | CCOc1nc(NCc2c(F)cc(Cl)cc2F)nc2ccc(-c3ccc(F)cc3)nc12 [Example 37, (4-Chloro-2,6-difluoro-benzyl)-[4-ethoxy-6-(4-fluoro-phenyl)-pyrido[3,2-d]pyrimidin-2-yl]-amine] | > 7.00 | 5 to 25 µM
18 | CCOc1nc(NCc2ccc(Cl)cc2F)nc2ccc(-c3ccc(F)cc3)nc12 [Example 38, (4-Chloro-2-fluoro-benzyl)-[4-ethoxy-6-(4-fluoro-phenyl)-pyrido[3,2-d]pyrimidin-2-yl]-amine] | > 7.00 | 5 to 25 µM
19 | CCOc1nc(NCc2c(F)cc(F)cc2F)nc2ccc(-c3ccc(F)cc3)nc12 [Example 39, (4-Ethoxy-6-(4-fluoro-phenyl)-pyrido[3,2-d]pyrimidin-2-yl]-(2,4,6-trifluoro-benzyl)-amine] | > 7.00 | 5 to 25 µM
20 | CCOc1nc(NCc2ccc(Cl)c(F)c2)nc2ccc(-c3ccc(F)cc3)nc12 [Example 40, (4-Chloro-3-fluoro-benzyl)-[4-ethoxy-6-(4-fluoro-phenyl)-pyrido[3,2-d]pyrimidin-2-yl]-amine] | > 7.00 | 5 to 25 µM
21 | CCOc1nc(NCc2ccc(F)c(F)c2F)nc2ccc(-c3ccc(F)cc3)nc12 [Example 41, [4-Ethoxy-6-(4-fluoro-phenyl)-pyrido[3,2-d]pyrimidin-2-yl]-(2,3,4-trifluoro-benzyl)-amine] | > 7.00 | 5 to 25 µM
22 | CCOc1nc(NCc2ccc(F)c(Cl)c2)nc2ccc(-c3ccc(F)cc3)nc12 [Example 42, (3-Chloro-4-fluoro-benzyl)-[4-ethoxy-6-(4-fluoro-phenyl)-pyrido[3,2-d]pyrimidin-2-yl]-amine] | > 7.00 | 5 to 25 µM
23 | CCOc1nc(NCc2ccc(F)cc2Cl)nc2ccc(-c3ccc(F)cc3)nc12 [Example 43, (2-Chloro-4-fluoro-benzyl)-[4-ethoxy-6-(4-fluoro-phenyl)-pyrido[3,2-d]pyrimidin-2-yl]-amine] | > 7.00 | > 25 µM
24 | CCOc1nc(NCc2ccc(C(F)(F)F)c(F)c2)nc2ccc(-c3ccc(F)cc3)nc12 [Example 44, [4-Ethoxy-6-(4-fluoro-phenyl)-pyrido[3,2-d]pyrimidin-2-yl]-(3-fluoro-4-trifluoromethyl-benzyl)-amine] | > 7.00 | 5 to 25 µM
